Values after ≈ are worked out from the molar mass of the structure shown. Active and inactive are the calls of the source. The calls are words filed in the database; no cut-off is given here.
What was measured:
MCF7 [1] = assay: Induction of apoptosis in human MCF7 cells assessed as formation of extremely condensed chromatin at 5 ug/ml after 48 hrs using acridine orange and ethidium bromide staining by light microscopic analysis; assay type: functional, cell-based
MCF7 [2] = assay: Induction of apoptosis in human MCF7 cells assessed as formation of cell membrane blebbing at 10 ug/ml after 48 hrs using acridine orange and ethidium bromide staining by light microscopic analysis; assay type: functional, cell-based
MCF7 [3] = assay: Induction of apoptosis in human MCF7 cells assessed as formation of nuclear fragmentation at 10 ug/ml after 48 hrs using acridine orange and ethidium bromide staining by light microscopic analysis; assay type: functional, cell-based
MCF7 [4] = assay: Induction of apoptosis in human MCF7 cells assessed as formation of chromatin condensation at 10 ug/ml after 48 hrs using acridine orange and ethidium bromide staining by light microscopic analysis; assay type: functional, cell-based
MCF7 [5] = assay: Induction of apoptosis in human MCF7 cells assessed dead cells at 5 ug/ml after 48 hrs using annexin V/propidium iodide staining by muse cell analyzer analysis (reference value: 1.04%); assay type: functional
MCF7 [6] = assay: Induction of apoptosis in human MCF7 cells assessed live cells at 5 ug/ml after 48 hrs using annexin V/propidium iodide staining by muse cell analyzer analysis (reference value: 81.07%); assay type: functional
MCF7 [7] = assay: Induction of apoptosis in human MCF7 cells assessed late apoptotic cells at 5 ug/ml after 48 hrs using annexin V/propidium iodide staining by muse cell analyzer analysis (reference value: 11.89%); assay type: functional
MCF7 [8] = assay: Induction of apoptosis in human MCF7 cells assessed early apoptotic cells at 5 ug/ml after 48 hrs using annexin V/propidium iodide staining by muse cell analyzer analysis (reference value: 6%); assay type: functional
MCF7 [9] = assay: Induction of apoptosis in human MCF7 cells assessed dead cells at 10 ug/ml after 48 hrs using annexin V/propidium iodide staining by muse cell analyzer analysis (reference value: 1.04%); assay type: functional
MCF7 [10] = assay: Induction of apoptosis in human MCF7 cells assessed live cells at 10 ug/ml after 48 hrs using annexin V/propidium iodide staining by muse cell analyzer analysis (reference value: 81.07%); assay type: functional
MCF7 [11] = assay: Induction of apoptosis in human MCF7 cells assessed late apoptotic cells at 10 ug/ml after 48 hrs using annexin V/propidium iodide staining by muse cell analyzer analysis (reference value: 11.89%); assay type: functional
MCF7 [12] = assay: Induction of apoptosis in human MCF7 cells assessed early apoptotic cells at 10 ug/ml after 48 hrs using annexin V/propidium iodide staining by muse cell analyzer analysis (reference value: 6%); assay type: functional
MCF7 [13] = assay: Cell cycle arrest in human MCF7 cells assessed as accumulation at G0/G1 phase at 5 ug/ml after 48 hrs using propidium iodide staining by flow cytometry analysis (reference value: 47.3%); assay type: functional
MCF7 [14] = assay: Cell cycle arrest in human MCF7 cells assessed as accumulation at S phase at 5 ug/ml after 48 hrs using propidium iodide staining by flow cytometry analysis (reference value: 12.7%); assay type: functional
MCF7 [15] = assay: Cell cycle arrest in human MCF7 cells assessed as accumulation at G2/M phase at 5 ug/ml after 48 hrs using propidium iodide staining by flow cytometry analysis (reference value: 25.8%); assay type: functional
MCF7 [16] = assay: Cell cycle arrest in human MCF7 cells assessed as accumulation at G0/G1 phase at 10 ug/ml after 48 hrs using propidium iodide staining by flow cytometry analysis (reference value: 47.3%); assay type: functional
MCF7 [17] = assay: Cell cycle arrest in human MCF7 cells assessed as accumulation at S phase at 10 ug/ml after 48 hrs using propidium iodide staining by flow cytometry analysis (reference value: 12.7%); assay type: functional
MCF7 [18] = assay: Cell cycle arrest in human MCF7 cells assessed as accumulation at G2/M phase at 10 ug/ml after 48 hrs using propidium iodide staining by flow cytometry analysis (reference value: 25.8%); assay type: functional
MCF7 [19] = assay: Induction of apoptosis in human MCF7 cells assessed as decrease of mitochondrial membrane potential after 12 hrs using JC-1 dye by fluorescence microscopic analysis; assay type: functional, cell-based
Bacillus subtilis = assay: Antimicrobial activity against Bacillus subtilis by cup plate diffusion method; assay type: functional
Priestia megaterium = assay: Antimicrobial activity against Bacillus megaterium by cup plate diffusion method; assay type: functional
Escherichia coli = assay: Antimicrobial activity against Escherichia coli by cup plate diffusion method; assay type: functional
Pseudomonas sp. = assay: Antimicrobial activity against Pseudomonas sp. by cup plate diffusion method; assay type: functional
Candida albicans = assay: Antimicrobial activity against Candida albicans by cup plate diffusion method; assay type: functional
HT-29 = assay: Cytotoxicity against human HT-29 cells after 48 hrs by MTT assay; assay type: functional, cell-based; conditions: HT-29, 48 h
HeLa = assay: Cytotoxicity against human HeLa cells after 48 hrs by MTT assay; assay type: functional, cell-based
MCF7 [20] = assay: Cytotoxicity against human MCF7 cells after 48 hrs by MTT assay; assay type: functional, cell-based; conditions: MCF7, 48 h
A549 = assay: Cytotoxicity against human A549 cells after 48 hrs by MTT assay; assay type: functional, cell-based; conditions: A549, 48 h
[21] = Cytotoxicity against human PC3 cells after 48 hrs by MTT assay; assay type: functional, cell-based; conditions: PC-3, 48 h
MCF7 [22] = assay: Induction of apoptosis in human MCF7 cells assessed as formation of intact nuclei at 5 ug/ml after 48 hrs using acridine orange and ethidium bromide staining by light microscopic analysis; assay type: functional, cell-based

For `OC[C@@H]1C[C@H](CO)[C@@H]2C(c3ccc4ccccc4c3)=NO[C@H]12`, the Activity (MCF7 [1]) was “Active”, the Activity (MCF7 [2]) was “Active” and the Activity (MCF7 [3]) was “Active”. For the same molecule, the Activity (MCF7 [4]) was “Active”, the Activity (MCF7 [5]) was 4.06% and the Activity (MCF7 [6]) was 55.08%. It also gave an Activity (MCF7 [7]) of 15.91%, an Activity (MCF7 [8]) of 24.94% and an Activity (MCF7 [9]) of 0.61%. For the same molecule, the Activity (MCF7 [10]) was 32.21%, the Activity (MCF7 [11]) was 18.85% and the Activity (MCF7 [12]) was 48.32%. It also gave an Activity (MCF7 [13]) of 44.7%, an Activity (MCF7 [14]) of 14.9% and an Activity (MCF7 [15]) of 24.8%. The Activity (MCF7 [16]) was 35.7%, the Activity (MCF7 [17]) was 27.5% and the Activity (MCF7 [18]) was 22.6%. For the same molecule, the Activity (MCF7 [19]) was “Dose-dependent effect”, the MIC (Bacillus subtilis) was 26 µg/mL (≈ 87.4 µM) and the MIC (Priestia megaterium) was 26 µg/mL (≈ 87.4 µM). For the same molecule, the MIC (Escherichia coli) was > 100 µg/mL, the MIC (Pseudomonas sp.) was > 100 µg/mL and the MIC (Candida albicans) was > 100 µg/mL. The IC50 (HT-29) was 14.3 µg/mL (≈ 48.1 µM), the IC50 (HeLa) was 24.5 µg/mL (≈ 82.4 µM) and the IC50 (MCF7 [20]) was 11.5 µg/mL (≈ 38.7 µM). The IC50 (A549) was > 50 µg/mL, the IC50 [21] was 48.4 µg/mL (≈ 163 µM) and the Activity (MCF7 [22]) was “Active”.
